Experimental data from patent publication US20100022531A1, “NOVEL COMPOUNDS AS P2X7 MODULATORS AND USES THEREOF” (RENOVIS, INC., priority 2005, published 2010).
Read-outs that look alike come from different tables or passages of the source.

Target: T1, P2X7 receptor (Homo sapiens, UniProt Q99572)
T1 construct: host or cells: THP-1 cells differentiated with LPS and IFN-γ
T1 sequence (Q99572 1-595): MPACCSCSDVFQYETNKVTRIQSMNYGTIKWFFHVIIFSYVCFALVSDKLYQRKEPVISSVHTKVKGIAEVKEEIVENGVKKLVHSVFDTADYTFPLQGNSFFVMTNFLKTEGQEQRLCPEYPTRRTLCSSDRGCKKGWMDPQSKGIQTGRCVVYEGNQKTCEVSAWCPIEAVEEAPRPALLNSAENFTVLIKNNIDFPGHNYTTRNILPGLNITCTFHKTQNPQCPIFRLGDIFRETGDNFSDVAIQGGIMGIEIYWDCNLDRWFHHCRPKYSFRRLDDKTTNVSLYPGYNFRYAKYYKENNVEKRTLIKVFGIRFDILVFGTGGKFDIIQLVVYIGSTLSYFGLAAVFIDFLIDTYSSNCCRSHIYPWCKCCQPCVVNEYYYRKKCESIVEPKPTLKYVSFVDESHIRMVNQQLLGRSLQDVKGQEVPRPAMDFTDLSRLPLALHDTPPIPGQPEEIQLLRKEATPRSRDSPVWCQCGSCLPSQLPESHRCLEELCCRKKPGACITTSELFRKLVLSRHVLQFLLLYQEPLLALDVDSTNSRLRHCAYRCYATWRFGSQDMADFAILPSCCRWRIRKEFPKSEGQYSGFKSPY
Assay: Alternate method for IL-1β release assay (differentiated THP-1 cells, BzATP-stimulated, ELISA)
Assay type: cell-based
Details: P2X7; for inhibition at 0.3 µM: read-out: IL-1β % inhib @ 0.3 μM; for inhibition at 0.1 µM: read-out: IL-1β % inhib @ 0.1 μM
Summary of the method: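 After 16 h differentiation with 100 ng/mL LPS and 100 ng/mL IFN-γ plus a further 2 h LPS priming, THP-1 cells were pretreated 30 min with compound, then stimulated with 250 uM BzATP (final) for 45 min. Supernatant IL-1β measured by ELISA; percent inhibition from background-adjusted levels versus untreated cells.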

[1] = 0.3 μM compound (asterisk symbols)
[2] = 0.1 μM compound (symbols + to ++++)
[3] = 0.3 μM compound (symbols * to ****)

| inhibition at 0.3 µM [1] [%] | SMILES | further results |
| --- | --- | --- |
| 25 to 50 | O=C(Cc1ccc(Cl)cc1)N1CCc2c(ncnc2NCC23CC4CC(CC(C4)C2)C3)C1 [Compound 120] |  |
| 50 to 75 | O=C(c1ccc(F)cc1F)N1CCc2c(ncnc2NCC23CC4CC(CC(C4)C2)C3)C1 [Compound 132] |  |
| 0 to 25 | c1nc2c(c(NCC34CC5CC(CC(C5)C3)C4)n1)CCN(CC1CC1)C2 [Compound 168] |  |
| > 75 | O=C(c1cccc(Cl)c1)N1CCc2c(ncnc2NCC23CC4CC(CC(C4)C2)C3)C1 [Compound 108] |  |
| 25 to 50 | COc1cccc(CC(=O)N2CCc3c(ncnc3NCC34CC5CC(CC(C5)C3)C4)C2)c1 [Compound 116] |  |
| 25 to 50 | CC(C)CCN1CCc2c(ncnc2NCC23CC4CC(CC(C4)C2)C3)C1 [Compound 194] |  |
| 50 to 75 | O=C(c1ccc2ccccc2c1)N1CCc2c(ncnc2NCC23CC4CC(CC(C4)C2)C3)C1 [Compound 143] |  |
| 0 to 25 | Cc1nn(C)c(Cl)c1S(=O)(=O)N1CCc2c(ncnc2NCC23CC4CC(CC(C4)C2)C3)C1 [Compound 18] |  |
| 50 to 75 | COc1cccc(S(=O)(=O)N2CCc3c(ncnc3NCC34CC5CC(CC(C5)C3)C4)C2)c1 [Compound 21] |  |
| > 75 | O=S(=O)(c1c(F)cccc1F)N1CCc2c(ncnc2NCC23CC4CC(CC(C4)C2)C3)C1 [Compound 63] |  |
| 25 to 50 | COc1ccc(C)cc1S(=O)(=O)N1CCc2c(ncnc2NCC23CC4CC(CC(C4)C2)C3)C1 [Compound 71] |  |
| > 75 | N#Cc1cccc(CN2CCc3c(ncnc3NCC34CC5CC(CC(C5)C3)C4)C2)c1 [Compound 182] |  |
| 0 to 25 | CCCN1CCc2c(ncnc2NCC23CC4CC(CC(C4)C2)C3)C1 [Compound 166] |  |
| 25 to 50 | O=C(c1ccc(C(F)(F)F)cc1F)N1CCc2c(ncnc2NCC23CC4CC(CC(C4)C2)C3)C1 [Compound 121] |  |
| 0 to 25 | Cc1nc(S(=O)(=O)N2CCc3c(ncnc3NCC34CC5CC(CC(C5)C3)C4)C2)cn1C [Compound 22] |  |

The next lines start with the compound.

| SMILES | inhibition at 0.3 µM [1] [%] | further results |
| --- | --- | --- |
| c1nc2c(c(NCC34CC5CC(CC(C5)C3)C4)n1)CCN(Cc1ccc3c(c1)OCO3)C2 [Compound 175] | 25 to 50 |  |
| O=C(c1cccnc1)N1CCc2c(ncnc2NCC23CC4CC(CC(O)(C4)C2)C3)C1 [Compound 350, {4-[(3-Hydroxy-adamantan-1-ylmethyl)-amino]-5,8-dihydro-6H-pyrido[3,4-d]pyrimidin-7-yl}-pyridin-3-yl-methanone] |  | inhibition at 0.1 µM [2]: 25 to 50% |
| O=S(=O)(c1cccc(Oc2ccc(Cl)c(Cl)c2)c1)N1CCc2c(ncnc2NCC23CC4CC(CC(C4)C2)C3)C1 [Compound 34] | 0 to 25 |  |
| O=C(CN1CCC1)N1CCc2c(ncnc2NCC2C3CC4CC(C3)CC2C4)C1 (stereo not drawn) [Compound 283] |  | inhibition at 0.3 µM [3]: 0 to 25% |
| O=S(=O)(Cc1ccc(C(F)(F)F)cc1)N1CCc2c(ncnc2NCC23CC4CC(CC(C4)C2)C3)C1 [Compound 39] | 0 to 25 |  |
| O=S(=O)(c1ccc(Oc2ccc(C(F)(F)F)cc2)cc1)N1CCc2c(ncnc2NCC23CC4CC(CC(C4)C2)C3)C1 [Compound 33] | 0 to 25 |  |
| O=C(OCc1ccc(C(F)(F)F)cc1)N1CCc2c(ncnc2NCC23CC4CC(CC(C4)C2)C3)C1 [Compound 324] |  | inhibition at 0.1 µM [2]: 50 to 75% |
| COc1ccc(S(=O)(=O)N2CCc3c(ncnc3NCC34CC5CC(CC(C5)C3)C4)C2)cc1OC [Compound 12] | 25 to 50 |  |
| Cc1ccc2occ(CN3CCc4c(ncnc4NCC45CC6CC(CC(C6)C4)C5)C3)c(=O)c2c1 [Compound 178] | 25 to 50 |  |
| O=S(=O)(c1ccccc1OC(F)(F)F)N1CCc2c(ncnc2NCC23CC4CC(CC(C4)C2)C3)C1 [Compound 55] | 0 to 25 |  |
| COc1ccc(CN2CCc3c(ncnc3NCC34CC5CC(CC(C5)C3)C4)C2)c(Cl)c1OC [Compound 197] | 0 to 25 |  |
| O=C(CN1CCN(c2ncccn2)CC1)N1CCc2c(ncnc2NCC2C3CC4CC(C3)CC2C4)C1 (stereo not drawn) [Compound 301] |  | inhibition at 0.3 µM [3]: 0 to 25% |
| O=S(=O)(c1cc(C(F)(F)F)ccc1Cl)N1CCc2c(ncnc2NCC23CC4CC(CC(C4)C2)C3)C1 [Compound 37] | 25 to 50 |  |
| CN1CCOc2cc(S(=O)(=O)N3CCc4c(ncnc4NCC45CC6CC(CC(C6)C4)C5)C3)ccc21 [Compound 17] | 0 to 25 |  |
| Fc1cc(CN2CCc3c(ncnc3NCC34CC5CC(CC(C5)C3)C4)C2)ccc1Cl [Compound 222] |  | inhibition at 0.3 µM [3]: > 75% |
| Fc1cc(C(F)(F)F)ccc1CN1CCc2c(ncnc2NCC23CC4CC(CC(C4)C2)C3)C1 [Compound 223] |  | inhibition at 0.3 µM [3]: > 75% |
| Brc1ccc(CN2CCc3c(ncnc3NCC34CC5CC(CC(C5)C3)C4)C2)cn1 [Compound 224] |  | inhibition at 0.3 µM [3]: 0 to 25% |
| O=S(=O)(c1ccccc1-c1ccccc1)N1CCc2c(ncnc2NCC23CC4CC(CC(C4)C2)C3)C1 [Compound 50] |  | inhibition at 0.1 µM (0.1 μM compound (plus symbols)): 25 to 50% |
| O=C(c1ccno1)N1CCc2c(ncnc2NCC23CC4CC(CC(C4)C2)C3)C1 [Compound 149] |  | inhibition at 0.1 µM (0.1 μM compound (plus symbols)): > 75% |
| c1nc2c(c(NCC34CC5CC(CC(C5)C3)C4)n1)CCN(Cc1ccc3c(c1)OCCO3)C2 [Compound 200] |  | inhibition at 0.3 µM [3]: 0 to 25% |

| SMILES | inhibition at 0.3 µM [1] [%] | further results |
| --- | --- | --- |
| Clc1cccc(CN2CCc3c(ncnc3NCC34CC5CC(CC(C5)C3)C4)C2)c1 [Compound 209] |  | inhibition at 0.3 µM [3]: 0 to 25% |
| O=C(COc1cccc(Cl)c1)N1CCc2c(ncnc2NCC23CC4CC(CC(C4)C2)C3)C1 [Compound 248, 1-{4-[(Adamantan-1-ylmethyl)-amino]-5,8-dihydro-6H-pyrido[3,4-d]pyrimidin-7-yl}-2-(3-chloro-phenoxy)-ethanone] |  | inhibition at 0.1 µM [2]: > 75% |
| O=C(COc1ccc(OC(F)(F)F)cc1)N1CCc2c(ncnc2NCC23CC4CC(CC(C4)C2)C3)C1 [Compound 251, 1-{4-[(Adamantan-1-ylmethyl)-amino]-5,8-dihydro-6H-pyrido[3,4-d]pyrimidin-7-yl}-2-(4-trifluoromethoxy-phenoxy)-ethanone] |  | inhibition at 0.1 µM [2]: 0 to 25% |
| O=S(=O)(c1ccc(F)cc1F)N1CCc2c(ncnc2NCC23CC4CC(CC(C4)C2)C3)C1 [Compound 66] |  | inhibition at 0.1 µM (0.1 μM compound (plus symbols)): 25 to 50% |
| O=C(OCc1ccco1)N1CCc2c(ncnc2NCC23CC4CC(CC(C4)C2)C3)C1 [Compound 336] |  | inhibition at 0.1 µM [2]: > 75% |
| O=C(OCc1ccncc1)N1CCc2c(ncnc2NCC23CC4CC(CC(C4)C2)C3)C1 [Compound 343] |  | inhibition at 0.1 µM [2]: 0 to 25% |
| FC12CC3CC(C1)CC(CNc1ncnc4c1CCN(Cc1ccc5c(c1)OCCO5)C4)(C3)C2 [Compound 332] |  | inhibition at 0.1 µM [2]: 0 to 25% |
| CN(CCC#N)CC(=O)N1CCc2c(ncnc2NCC2C3CC4CC(C3)CC2C4)C1 (stereo not drawn) [Compound 277] |  | inhibition at 0.3 µM [3]: 0 to 25% |
| O=C(OCc1cccnc1)N1CCc2c(ncnc2NCC23CC4CC(CC(C4)C2)C3)C1 [Compound 328] |  | inhibition at 0.1 µM [2]: 50 to 75% |
| COc1cc(CN2CCc3c(ncnc3NCC34CC5CC(CC(C5)C3)C4)C2)ccc1OCc1ccccc1 [Compound 199] |  | inhibition at 0.3 µM [3]: 0 to 25% |
| CCN(C)CC(=O)N1CCc2c(ncnc2NCC2C3CC4CC(C3)CC2C4)C1 (stereo not drawn) [Compound 282] |  | inhibition at 0.3 µM [3]: 0 to 25% |
| COc1cccc(CN2CCc3c(ncnc3NCC34CC5CC(CC(C5)C3)C4)C2)c1OC [Compound 202] |  | inhibition at 0.3 µM [3]: > 75% |
| O=S(=O)(Cc1cccc(C(F)(F)F)c1)N1CCc2c(ncnc2NCC23CC4CC(CC(C4)C2)C3)C1 [Compound 43] | 25 to 50 |  |
| O=C(CNC1CCN(Cc2ccccc2)CC1)N1CCc2c(ncnc2NCC23CC4CC(CC(C4)C2)C3)C1 [Compound 261] |  | inhibition at 0.3 µM [3]: 25 to 50% |
| CN(CC(=O)N1CCc2c(ncnc2NCC2C3CC4CC(C3)CC2C4)C1)Cc1cccc(Cl)c1 (stereo not drawn) [Compound 311] |  | inhibition at 0.3 µM [3]: 25 to 50% |
| c1ccc2cc(CN3CCc4c(ncnc4NCC45CC6CC(CC(C6)C4)C5)C3)ccc2c1 [Compound 176] | 0 to 25 |  |
| O=C(c1cccnc1)N1CCc2c(ncnc2NCC23CC4CC(CC(F)(C4)C2)C3)C1 [Compound 322] |  | inhibition at 0.1 µM [2]: 25 to 50% |
| O=S(=O)(c1ccc(OC(F)(F)F)cc1)N1CCc2c(ncnc2NCC23CC4CC(CC(C4)C2)C3)C1 [Compound 16] | 0 to 25 |  |
| O=C(CN1CCOCC1)N1CCc2c(ncnc2NCC2C3CC4CC(C3)CC2C4)C1 (stereo not drawn) [Compound 272] |  | inhibition at 0.3 µM [3]: 0 to 25% |
